Measurements reported in patent publication US11000509B2, “Methods and compositions for daily ophthalmic administration of phentolamine to improve visual performance” (Ocuphire Pharma, Inc., priority 2013, dated 2021).
Where “and” joins values, the source holds several entries; their conditions need not be identical. Equal values may be shown once. Where a name gives a salt, the structure may show the parent alone. Marks after values point to notes of the source that are not given here.

Tests used:
[1] = test system: eyes of patients suffering from severe night vision difficulty; assay: Example 1 clinical study: reduction in pupil diameter; format: in vivo, humans; conditions: from percentage of eyes with at least 10% reduction in pupil diameter after the last dose, second period, 1% (w/v) (FIG. 4B)
Text: Sixty patients with normal day vision (i.e., 20/40 or better) but which suffer from severe night vision difficulty were enrolled in the study. During the first period of the study, patients were randomized into three groups. The groups received either placebo, 0.5% (w/v) phentolamine mesylate, or 1.0% (w/v) phentolamine mesylate once daily for 15 days. The patients were observed on days 1, 4, 8, and 15 prior to administering the ophthalmic solution of phentolamine mesylate and then observed again two hours after the ophthalmic solution of phentolamine mesylate was administered. During the second period of the study, all sixty patients were instructed to administer an ophthalmic solution of phentolamine mesylate (1% (w/v)) as needed, but no more than once daily to each eye. The ophthalmic solution of phentolamine mesylate contained: 1% (w/v) phentolamine mesylate, 4% (w/v) mannitol, 3 mM sodium acetate, and water. The placebo was a solution containing 4% (w/v) mannitol, 3 mM sodium acetate, and water.

[2] = test system: eyes of patients with pupil size in dim light of greater than 7 mm; assay: Example 2 clinical study: pupil diameter by NeurOptics pupilometer; one drop oxymetazoline (Visine LR) then one drop test article in Tears Naturale II in each eye; format: in vivo, humans; conditions: for Range of pupil diameters: immediately prior to administration
Protocol: Sixteen patients were randomized into four groups (of four subjects each). Each group was treated on three successive study visits separated by at least 4 days with one drop of ophthalmic oxymetazoline solution (Visine LR®) in each eye followed by one drop test article in each eye. The test article was a 0.2% (w/v) phentolamine mesylate solution, 0.4% (w/v) phentolamine mesylate solution, 0.8% (w/v) phentolamine mesylate solution, or placebo. Test articles contained the designed amount of phentolamine mesylate in a solution of Tears Naturale II® (from Alcon Labs). Placebo was just Tears Naturale II® (from Alcon Labs). Tears Naturale II® (from Alcon Labs) contains Dextran 70 (0.1% by weight), Hydroxypropyl Methylcellulose 2910 (0.3% by weight), Polyquarternium-1 (0.001% by weight), potassium chloride, water (purified), sodium borate, sodium chloride, and hydrochloric acid and/or sodium hydroxide as necessary to adjust the pH. The patients' eye redness and pupil diameters were recorded at baseline (i.e., prior to treatment administration), and at 30 minutes, 1 hour, 2 hours, 4 hours, and 8 hours after administration of test articles. The incidence of any treatment-emergent adverse events was also recorded. Total study duration was approximately nine hours.
Eye redness of patients' eyes was evaluated by the research assistant and recorded as a single integer of value 0 (no redness) to 4 (extreme redness) at baseline and each time point after treatment. Pupil diameters were measured to within 0.1 mm for each eye at baseline and each subsequent time point using a NeurOptics™ pupilometer. Monocular high contrast visual acuity was measured for each eye under photopic conditions at baseline and each subsequent time point in a darkened room using a Precision Vision™ High Contrast (100% tint) Visual Acuity Chart (Catalog #2102) backlit by the Precision Vision Illumination Box. Monocular low contrast visual acuity was measured for each eye under photopic conditions at baseline and each subsequent time point in a darkened room using a Precision Vision™ Low Contrast (5% tint) Visual Acuity Chart (Catalog #2186) backlit by the Precision Vision Illumination Box. Effect of treatment on glare was assessed using an experimental test method consisting of a panel with a high wattage central light emitting diode (LED) and a set of 7 lower wattage red LEDs radiating horizontally and vertically from the central light.
Comparisons of changes in mean values within treatment groups were tested for significance using two-tailed paired two sample t-tests with a threshold for significance set at p<0.01 (Bonferroni Correction for multiple paired t-tests). Differences between treatment groups with respect to mean values for pupil size over the course of the study were tested for significance using repeated measure ANOVA (which discards data from subjects lacking any data points). Differences in mean eye redness between treatment groups were evaluated using Kruskal-Wallis nonparametric testing. Differences in means between treatment groups at individual time points were tested for significance using one-way ANOVA.

[3] = 0.2% (w/v) solution, 30 min after treatment
[4] = 0.2% (w/v) solution, 1 hour after treatment
[5] = 0.2% (w/v) solution, 2 hours after treatment
[6] = 0.2% (w/v) solution, 4 hours after treatment
[7] = 0.2% (w/v) solution, 8 hours after treatment
[8] = 0.2% (w/v) solution, Baseline, prior to treatment
[9] = 0.4% (w/v) solution, 30 min after treatment
[10] = 0.4% (w/v) solution, 1 hour after treatment
[11] = 0.4% (w/v) solution, 2 hours after treatment
[12] = 0.4% (w/v) solution, 4 hours after treatment
[13] = 0.4% (w/v) solution, 8 hours after treatment
[14] = 0.4% (w/v) solution, Baseline, prior to treatment
[15] = 0.8% (w/v) solution, 30 min after treatment
[16] = 0.8% (w/v) solution, 1 hour after treatment
[17] = 0.8% (w/v) solution, 2 hours after treatment
[18] = 0.8% (w/v) solution, 4 hours after treatment
[19] = 0.8% (w/v) solution, 8 hours after treatment
[20] = 0.8% (w/v) solution, Baseline, prior to treatment

Question: Which pharmacokinetic half-life [1] does the source give for `Cc1ccc(N(CC2=NCCN2)c2cccc(O)c2)cc1` [Phentolamine Mesylate, phentolamine mesylate] here?
Answer: approximately two

Question: What about the Maximum pupil diameter [2, 3] of the same compound?
Answer: 9.2 mm

Question: And the “Mean change in pupil diameter from baseline” value (“Mean change in pupil diameter” for short) [2, 3]?
Answer: −0.04 mm

Question: What about the Mean pupil diameter [2, 3] of the same compound?
Answer: 7.74 mm

Question: What about the Minimum pupil diameter [2, 3] of the same compound?
Answer: 5.1 mm

Question: What about the Maximum pupil diameter [2, 4] of the same compound?
Answer: 8.9 mm

Question: What about the “Mean change in pupil diameter” value [2, 4] of the same compound?
Answer: −0.24 mm

Question: And the Mean pupil diameter [2, 4]?
Answer: 7.54 mm

Question: And the Minimum pupil diameter [2, 4]?
Answer: 4.9 mm

Question: What about the Maximum pupil diameter [2, 5] of the same compound?
Answer: 8.4 mm

Question: What about the “Mean change in pupil diameter” value [2, 5] of the same compound?
Answer: −0.75 mm

Question: And the Mean pupil diameter [2, 5]?
Answer: 7.01^c mm

Question: And the Minimum pupil diameter [2, 5]?
Answer: 4.7 mm

Question: What about the Maximum pupil diameter [2, 6] of the same compound?
Answer: 8.0 mm

Question: What about the “Mean change in pupil diameter” value [2, 6] of the same compound?
Answer: −0.69 mm

Question: What about the Mean pupil diameter [2, 6] of the same compound?
Answer: 7.30^d mm

Question: What about the Minimum pupil diameter [2, 6] of the same compound?
Answer: 6.3 mm

Question: What about the Maximum pupil diameter [2, 7] of the same compound?
Answer: 8.5 mm

Question: What about the “Mean change in pupil diameter” value [2, 7] of the same compound?
Answer: −0.59 mm

Question: And the Mean pupil diameter [2, 7]?
Answer: 7.18 mm

Question: What about the Minimum pupil diameter [2, 7] of the same compound?
Answer: 4.7 mm

Question: What about the “Range of pupil diameters” value ([2]; 0.2% (w/v) solution, Baseline) of the same compound?
Answer: 5.2-8.8 mm

Question: What about the Maximum pupil diameter [2, 8] of the same compound?
Answer: 8.8 mm

Question: And the Mean pupil diameter [2, 8]?
Answer: 7.8 mm and 7.78 mm

Question: What about the Minimum pupil diameter [2, 8] of the same compound?
Answer: 5.2 mm

Question: And the “change from baseline in mean pupil diameter, significance” value ([2]; 0.2%, 0.4% and 0.8% (w/v), by one hour post treatment, p<0.01)?
Answer: significant

Question: What about the “mean pupil diameter between different doses” value ([2]; 0.2%, 0.4%, 0.8% (w/v), any time point) of the same compound?
Answer: no statistically significant differences

Question: What about the Maximum pupil diameter [2, 9] of the same compound?
Answer: 8.8 mm

Question: And the “Mean change in pupil diameter” value [2, 9]?
Answer: 0.00 mm

Question: And the Mean pupil diameter [2, 9]?
Answer: 7.72 mm

Question: What about the Minimum pupil diameter [2, 9] of the same compound?
Answer: 5.6 mm

Question: What about the Maximum pupil diameter [2, 10] of the same compound?
Answer: 8.3 mm

Question: What about the “Mean change in pupil diameter” value [2, 10] of the same compound?
Answer: −0.29 mm

Question: And the Mean pupil diameter [2, 10]?
Answer: 7.41 mm

Question: What about the Minimum pupil diameter [2, 10] of the same compound?
Answer: 5.5 mm

Question: And the Maximum pupil diameter [2, 11]?
Answer: 8.4 mm

Question: What about the “Mean change in pupil diameter” value [2, 11] of the same compound?
Answer: −0.64 mm

Question: And the Mean pupil diameter [2, 11]?
Answer: 7.05 mm

Question: And the Minimum pupil diameter [2, 11]?
Answer: 5.0 mm

Question: What about the Maximum pupil diameter [2, 12] of the same compound?
Answer: 8.1 mm

Question: What about the “Mean change in pupil diameter” value [2, 12] of the same compound?
Answer: −0.74 mm

Question: And the Mean pupil diameter [2, 12]?
Answer: 7.01 mm

Question: And the Minimum pupil diameter [2, 12]?
Answer: 5.0 mm

Question: And the Maximum pupil diameter [2, 13]?
Answer: 8.6 mm

Question: And the “Mean change in pupil diameter” value [2, 13]?
Answer: −0.74 mm

Question: What about the Mean pupil diameter [2, 13] of the same compound?
Answer: 7.01 mm

Question: What about the Minimum pupil diameter [2, 13] of the same compound?
Answer: 4.8 mm

Question: And the “Range of pupil diameters” value ([2]; 0.4% (w/v) solution, Baseline)?
Answer: 5.8-8.6 mm

Question: What about the Maximum pupil diameter [2, 14] of the same compound?
Answer: 8.6 mm

Question: What about the Mean pupil diameter [2, 14] of the same compound?
Answer: 7.7 mm and 7.71 mm

Question: And the Minimum pupil diameter [2, 14]?
Answer: 5.8 mm

Question: And the Maximum pupil diameter [2, 15]?
Answer: 9.2 mm

Question: What about the “Mean change in pupil diameter” value [2, 15] of the same compound?
Answer: −0.10 mm

Question: What about the Mean pupil diameter [2, 15] of the same compound?
Answer: 7.87 mm

Question: And the Minimum pupil diameter [2, 15]?
Answer: 5.2 mm

Question: What about the Maximum pupil diameter [2, 16] of the same compound?
Answer: 9.1 mm

Question: What about the “Mean change in pupil diameter” value [2, 16] of the same compound?
Answer: −0.27 mm

Question: What about the Mean pupil diameter [2, 16] of the same compound?
Answer: 7.69 mm

Question: And the Minimum pupil diameter [2, 16]?
Answer: 5.1 mm

Question: And the Maximum pupil diameter [2, 17]?
Answer: 8.7 mm

Question: And the “Mean change in pupil diameter” value [2, 17]?
Answer: −0.66 mm

Question: And the Mean pupil diameter [2, 17]?
Answer: 7.30 mm

Question: What about the Minimum pupil diameter [2, 17] of the same compound?
Answer: 4.7 mm

Question: What about the Maximum pupil diameter [2, 18] of the same compound?
Answer: 8.6 mm

Question: What about the “Mean change in pupil diameter” value [2, 18] of the same compound?
Answer: −0.64 mm

Question: And the Mean pupil diameter [2, 18]?
Answer: 7.32 mm

Question: And the Minimum pupil diameter [2, 18]?
Answer: 5.5 mm

Question: And the Maximum pupil diameter [2, 19]?
Answer: 8.7 mm

Question: And the “Mean change in pupil diameter” value [2, 19]?
Answer: −0.56 mm

Question: And the Mean pupil diameter [2, 19]?
Answer: 7.40 mm

Question: What about the Minimum pupil diameter [2, 19] of the same compound?
Answer: 4.7 mm

Question: What about the “Range of pupil diameters” value ([2]; 0.8% (w/v) solution, Baseline) of the same compound?
Answer: 4.6-9.3 mm

Question: And the Maximum pupil diameter [2, 20]?
Answer: 9.3 mm

Question: And the Mean pupil diameter [2, 20]?
Answer: 8.0 mm and 7.96 mm

Question: What about the Minimum pupil diameter [2, 20] of the same compound?
Answer: 4.6 mm

Question: What about the “mean pupil diameter compared to placebo (ad hoc Fisher's test)” value ([2]; any concentration (0.2%, 0.4%, 0.8% w/v), 2, 4 and 8 hours) of the same compound?
Answer: significant differences
